Where two headings read alike, the source gives them in different places. Blank lines part the entries; values can stand above or below the compound they belong to.
Legend:
[1] = Diffusion coefficients and equivalent size estimated from molecular weight; type: physicochemical; settings: for Diff Coeff: Table 2, 37 C, estimated from molecular weight; for Equiv volume / equivalent diameter: assumes unit density, per molecule; for D/(Ran D): diffusion relative to Ranibizumab
From the text: If the reservoir solution is aqueous or has a viscosity similar to water, the value for the diffusion coefficient of the therapeutic agent (TA) in water at the temperature of interest may be used. […] (Molokhia et al, Exp Eye Res 2008): DTA,37C=DBSA,20C(η20C/η37C)(MWBSA/MWTA)^1/3 where MW refers to the molecular weight of either BSA or the test compound and η is the viscosity of water.
The diffusion constant of the stabilizer can be determined, for example, based on an estimate of hydrodynamic radius corresponding to the cube root of the molecular weight as described herein.
The diffusion coefficients of Table 2 can be determined based on weight for molecular weights up to about 2.5 M Daltons, and based on size above about 2.5 M Daltons.

[2] = Diffusion model of release from the therapeutic device reservoir through the porous structure; settings: for relative half-life in device 100: % of ranibizumab
From the text: The release rate of therapeutic agent 110 through a porous body, such as a sintered porous metal structure or a porous glass structure, may be described by diffusion of the therapeutic agent 110 within the porous structure 150 with the channel parameter, and with an effective diffusion coefficient equal to the diffusion coefficient of the therapeutic agent 110 in the liquid that fills the reservoir multiplied by the Porosity and a Channel Parameter of the porous body: Release Rate=(DP/F)A(cR−cV)/L, where: cR=Concentration in reservoir cV=Concentration outside of the reservoir or in the vitreous D=Diffusion coefficient of the therapeutic agent in the reservoir solution P=Porosity of porous structure F=Channel parameter that may correspond to a tortuosity parameter of channels of porous structure A=Area of porous structure L=Thickness (length) of porous structure Cumulative Release=1−cR/cR0=1−exp((−DPA/FLVR)t), where t=time, Vr=reservoir volume
A model can be derived to describe the release rate as a function of time by relating the change of concentration in the reservoir 140 to the release rate described above. This model assumes a solution of therapeutic agent 110 where the concentration in the reservoir 140 is uniform. In addition, the concentration in the receiving fluid or vitreous is considered negligible (cV=0). Solving the differential equation and rearrangement yields the following equations describing the concentration in the reservoir as a function of time, t, and volume of the reservoir, VR, for release of a therapeutic agent 110 from a solution in a reservoir though a porous structure 150. cR=cR0 exp((−DPA/FLVR)t) and Cumulative Release=1−cR/cR0
The molecular weight of the stabilizer can be provided in 1k Dalton increments from about 1k Dalton to about 200k Daltons and provide in a Table having about 200 rows similar to Table 2. The parameters of Table 2 determined such as the half-life in the device, the equivalent volume, the equivalent diameter, and % in the device at the half-life of the therapeutic agent 110. The table may comprise a row for each molecular weight in 1k Dalton increments, and the % of stabilizer in the device compared with the therapeutic agent 110. The table may include columns for two half-lives of the therapeutic agent, three half-lives of the therapeutic agent, four half-lives of the therapeutic agent, and the corresponding percentage of stabilizer remaining in the device.
FIG. 104 and Table 3 show concentrations of therapeutic agent, stabilizer and the ratio of stabilizer to therapeutic agent in accordance with an exemplary embodiment, for example. The concentrations and rations can be determined by a person of ordinary skill in the art based on the teachings described herein. […] Additional concentrations of the therapeutic agent can be used, for example greater amounts of therapeutic agent.

[3] = vitreous, human eye; cited from earlier work
[4] = vitreous, rabbit; cited from earlier work
[5] = vitreous, monkey; cited from earlier work
[6] = test system: analytes detected in pathological aqueous samples; assay: Analytes in pathological aqueous samples pre-treatment and after intravitreal bevacizumab injection (Table 1); type: in vivo
From the text: The markers can be used to determine a course of treatment for the patient, and may be combined in many ways with the therapeutic agent as described herein. In many embodiments, the marker comprises a molecule that is a component of the eye which can diffuse through the porous structure into the reservoir structure. In many embodiments, the marker comprises a large molecule that can diffuse through the porous structure of the implanted device into the reservoir chamber. The therapeutic agent may comprise a large molecule or a small molecule that can diffuse through the porous structure, or combinations of large and small molecules. Work in relation to embodiments indicate that marker molecules having a lower molecular weight may accumulate in the implanted device more rapidly than larger molecular weight marker molecules, and that marker molecules having a molecular weight of no more than about 500 kDa can be used in many embodiments. In many embodiments the molecular weight can be smaller than 500 kDa, for example 100 kDa or less, so that the accumulation rate is increased. The molecular weight values of Table 1 can be combined in many ways to provide ranges of molecular weights of the measured marker. Alternatively or in combination, a plurality of markers of different molecular weight can be used to diagnose and treat the patient. Examples of markers and amounts similar to Table 1 can be used and are shown in Molecular Vision (Mol. Vis. 2010; 16: 2175-2184, Published online 2010 Oct. 27) available on the world wide web (at the address http://www.ncbi.nlm.nih.gov/pmc/articles/PMC2994336/table/t1/)
A ratio of pre-treatment mean concentration to post-treatment mean concentration is shown for the markers of Table 1. This ratio can be used to determine markers suitable to indicate efficacy of treatment and markers suitable for use as housekeeping genes. The markers having a ratio […] about 1.2, for example, can be suitable for use as housekeeping markers. Markers having a ratio above about 1.2 may be suitable for use as efficacy markers. In many embodiments, the one or more markers from the therapeutic device correspond to a pre/post ratio above of about 1.5, for example. Alternatively or in combination, the pre/post ratio can be less than 0.8, for example, and the marker risk may correspond to under-expression of protective factors, for example. The marker profile to diagnose the patient from a sample of the implanted device may comprise a plurality of up-regulation of pathogenic factor markers corresponding to a ratio above about 1.2 and a plurality of under-expression of protective factor markers corresponding to a ratio below about 0.8, for example.

[7] = aqueous samples after intravitreal bevacizumab injection
[8] = aqueous samples, intravitreal bevacizumab injection

Compound: Polysorbate 20
Diff Coeff [1]: 3.4E−06 cm^2/s
Diff Coeff ([1]; listed as polysorbate 20): ~3.4E-6 cm^2/s
Equiv volume [1]: 2.0 nm^3
equivalent diameter [1]: ~1.6 nm
D/(Ran D) [1]: 3.39
relative half-life in device 100 [2]: about 29%
relative amount remaining in therapeutic device 100 ([2]; at the half-life of ranibizumab): about 9.5%

Diff Coeff [1]: 5.0E−06 cm^2/s
Diff Coeff ([1]; listed as trehalose): ~5.0E-6 cm^2/s
Equiv volume [1]: 0.6 nm^3
equivalent diameter [1]: ~1.1 nm
D/(Ran D) [1]: 5.03
Device Half-life relative to Ranibiz. [2]: 0.20
relative amount remaining in therapeutic device 100 [2]: about 3.1%
relative half-life in device 100 [2]: about 20%
diffusion coefficient and rate of release through the porous structure relative to Ranibizumab ([2]; faster than Ranibizumab): approx. 5 times
Compound: OC[C@H]1O[C@H](O[C@H]2O[C@H](CO)[C@@H](O)[C@H](O)[C@H]2O)[C@H](O)[C@@H](O)[C@@H]1O [Trehalose]

Compound: Ranibizumab
Device Half-life relative to Ranibiz. [2]: 1.00
half-life [3]: 220 h
half-life [4]: approximately 3 days
half-life [5]: approximately 3 days

Diff Coeff [1]: 6.8E−06 cm^2/s
Equiv volume [1]: 0.3 nm^3
D/(Ran D) [1]: 6.75
Device Half-life relative to Ranibiz. [2]: 0.15
Compound: N[C@@H](Cc1c[nH]cn1)C(=O)O [Histidine]

Compound: Bevacizumab
Device Half-life relative to Ranibiz. [2]: 1.46
Alpha-1 Antitrypsin Post-treatment mean [6, 7]: 0.0025 mg/mL
Alpha-Fetoprotein Post-treatment mean [6, 7]: 0.2790 ng/mL
Apolipoprotein A1 Post-treatment mean [6, 7]: 0.0004 mg/mL
Apolipoprotein CIII Post-treatment mean [6, 7]: 0.0259 µg/mL
Apolipoprotein H Post-treatment mean [6, 7]: 0.6400 µg/mL
Beta-2 Microglobulin Post-treatment mean [6, 7]: 0.3026 µg/mL
C Reactive Protein Post-treatment mean [6, 7]: 0.0477 µg/mL
CD40 Post-treatment mean [6, 7]: 0.0510 ng/mL
Cancer Antigen 19-9 Post-treatment mean [6, 7]: 0.2042 U/ml
Cancer Antigen 125 Post-treatment mean [6, 7]: 1.7225 U/ml
Complement 3 Post-treatment mean [6, 7]: 0.0014 mg/mL
Endothelin-1 Post-treatment mean [6, 7]: 5.2375 pg/mL
Eotaxin Post-treatment mean [6, 7]: 13.5813 pg/mL
Erythropoietin Post-treatment mean [6, 7]: 111.6125 pg/mL
FGF basic Post-treatment mean [6, 7]: 30.8900 pg/mL
Fibrinogen Post-treatment mean [6, 7]: 0.0005 mg/mL
G-CSF Post-treatment mean [6, 7]: 3.6748 pg/mL
Glutathione S-Transferase Post-treatment mean [6, 7]: 0.1544 ng/mL
Haptoglobin Post-treatment mean [6, 7]: 0.0004 mg/mL
ICAM-1 Post-treatment mean [6, 7]: 0.6971 ng/mL
IGF-1 Post-treatment mean [6, 7]: 1.4285 ng/mL
IL-6 Post-treatment mean [6, 7]: 15.2016 pg/mL
IL-7 Post-treatment mean [6, 7]: 12.3125 pg/mL
IL-8 Post-treatment mean [6, 7]: 14.9900 pg/mL
IgA Post-treatment mean [6, 7]: 0.0015 mg/mL
IgM Post-treatment mean [6, 7]: 0.0009 mg/mL
Leptin Post-treatment mean [6, 7]: 0.2131 ng/mL
MCP-1 Post-treatment mean [6, 7]: 438.3750 pg/mL
MIP-1alpha Post-treatment mean [6, 7]: 9.4175 pg/mL
MIP-1beta Post-treatment mean [6, 7]: 21.7988 pg/mL
MMP-3 Post-treatment mean [6, 7]: 0.6159 ng/mL
Prostate Specific Antigen, Free Post-treatment mean [6, 7]: 0.0092 ng/mL
Prostatic Acid Phosphatase Post-treatment mean [6, 7]: 0.0095 ng/mL
SGOT Post-treatment mean [6, 7]: 1.3488 µg/mL
SHBG Post-treatment mean [6, 7]: 0.2250 nmol/L
Serum Amyloid P Post-treatment mean [6, 7]: 0.0134 µg/mL
Stem Cell Factor Post-treatment mean [6, 7]: 19.4375 pg/mL
TIMP-1 Post-treatment mean [6, 7]: 22.3825 ng/mL
Thyroxine Binding Globulin Post-treatment mean [6, 7]: 0.3876 µg/mL
Tissue Factor Post-treatment mean [6, 7]: 0.3631 ng/mL
VEGF Post-treatment mean [6, 7]: 484.1250 pg/mL
Alpha-1 Antitrypsin Pre-treatment mean/Post-treatment mean [6, 8]: 0.9
Alpha-Fetoprotein Pre-treatment mean/Post-treatment mean [6, 8]: 0.9
Apolipoprotein A1 Pre-treatment mean/Post-treatment mean [6, 8]: 1.8
Apolipoprotein CIII Pre-treatment mean/Post-treatment mean [6, 8]: 1.6
Apolipoprotein H Pre-treatment mean/Post-treatment mean [6, 8]: 1.3
Beta-2 Microglobulin Pre-treatment mean/Post-treatment mean [6, 8]: 1.4
C Reactive Protein Pre-treatment mean/Post-treatment mean [6, 8]: 2.3
CD40 Pre-treatment mean/Post-treatment mean [6, 8]: 1.3
Cancer Antigen 19-9 Pre-treatment mean/Post-treatment mean [6, 8]: 1.4
Cancer Antigen 125 Pre-treatment mean/Post-treatment mean [6, 8]: 1.0
Complement 3 Pre-treatment mean/Post-treatment mean [6, 8]: 0.9
Endothelin-1 Pre-treatment mean/Post-treatment mean [6, 8]: 1.0
Eotaxin Pre-treatment mean/Post-treatment mean [6, 8]: 1.3
Erythropoietin Pre-treatment mean/Post-treatment mean [6, 8]: 1.1
FGF basic Pre-treatment mean/Post-treatment mean [6, 8]: 1.7
Fibrinogen Pre-treatment mean/Post-treatment mean [6, 8]: 2.2
G-CSF Pre-treatment mean/Post-treatment mean [6, 8]: 4.7
Glutathione S-Transferase Pre-treatment mean/Post-treatment mean [6, 8]: 0.9
Haptoglobin Pre-treatment mean/Post-treatment mean [6, 8]: 1.3
ICAM-1 Pre-treatment mean/Post-treatment mean [6, 8]: 1.1
IGF-1 Pre-treatment mean/Post-treatment mean [6, 8]: 1.0
IL-6 Pre-treatment mean/Post-treatment mean [6, 8]: 7.9
IL-7 Pre-treatment mean/Post-treatment mean [6, 8]: 0.9
IL-8 Pre-treatment mean/Post-treatment mean [6, 8]: 1.5
IgA Pre-treatment mean/Post-treatment mean [6, 8]: 0.9
IgM Pre-treatment mean/Post-treatment mean [6, 8]: 1.4
Leptin Pre-treatment mean/Post-treatment mean [6, 8]: 1.8
MCP-1 Pre-treatment mean/Post-treatment mean [6, 8]: 1.5
MIP-1alpha Pre-treatment mean/Post-treatment mean [6, 8]: 1.1
MIP-1beta Pre-treatment mean/Post-treatment mean [6, 8]: 1.1
MMP-3 Pre-treatment mean/Post-treatment mean [6, 8]: 1.0
Prostate Specific Antigen, Free Pre-treatment mean/Post-treatment mean [6, 8]: 1.8
Prostatic Acid Phosphatase Pre-treatment mean/Post-treatment mean [6, 8]: 2.7
SGOT Pre-treatment mean/Post-treatment mean [6, 8]: 1.3
SHBG Pre-treatment mean/Post-treatment mean [6, 8]: 2.3
Serum Amyloid P Pre-treatment mean/Post-treatment mean [6, 8]: 2.1
Stem Cell Factor Pre-treatment mean/Post-treatment mean [6, 8]: 1.0
TIMP-1 Pre-treatment mean/Post-treatment mean [6, 8]: 1.4
Thyroid Stimulating Hormone Pre-treatment mean/Post-treatment mean [6, 8]: 1.6
Thyroxine Binding Globulin Pre-treatment mean/Post-treatment mean [6, 8]: 1.6
Tissue Factor Pre-treatment mean/Post-treatment mean [6, 8]: 1.0
VEGF Pre-treatment mean/Post-treatment mean [6, 8]: 1.4

From patent US10398592B2, “Diagnostic methods and apparatus” (ForSight Vision4, Inc., priority 2011, dated 2019)
